# Data published in patent US20090312288A1 (TAKEDA PHARMACEUTICAL COMPANY LIMITED, priority 2008, published 2009).
# Biological target: Aurora B/INCENP (Homo sapiens, UniProt Q96GD4)
# Assay: Determination of inhibition of AIK: Aurora B/INCENP direct fluorescence polarization (IMAP) assay
# Format: biochemical
# Settings: 10 uM ATP, 0.8 nM Aurora B/INCENP; values given as bins; read-out: IC50 of Exemplified Compounds Against AIK B
# Procedure: Detection of the reaction product is performed by addition of Progressive IMAP binding reagent (Molecular Devices). Reaction product may be determined quantitatively by FP using an Analyst HT plate reader (Molecular Devices) with an excitation wavelength at 485 nm and emission at 530 nm and using a Fluorescein 505 dichroic mirror.
# The assay reaction may be initiated as follows: 2 ul of (3×) 300 nM Fl-Peptide/30 uM ATP was added to each well of the plate, followed by the addition of 2 ul of (3×) inhibitor (2 fold serial dilutions for 11 data points for each inhibitor) containing 15% DMSO. Two microliters of (3×) 2.4 nM AuroraB/INCENP solution may be added to initiate the reaction (final enzyme concentration was 0.8 nM for Aurora B/INCENP). The reaction mixture may then be incubated at room temperature for 45 min, and quenched and developed by addition of 20 ul of 1 to 400 diluted Progressive IMAP binding reagent in 1× proprietary Progressive IMAP binding buffer A. Fluorescence polarization readings of the resulting reaction mixtures may be measured after a 60-minute incubation at room temperature.
# IC50 values may be calculated by non-linear curve fitting of the compound concentrations and fluorescent polarization values to the standard IC50 equation.
# Aurora B/INCENP, sequence (Q96GD4 whole entry): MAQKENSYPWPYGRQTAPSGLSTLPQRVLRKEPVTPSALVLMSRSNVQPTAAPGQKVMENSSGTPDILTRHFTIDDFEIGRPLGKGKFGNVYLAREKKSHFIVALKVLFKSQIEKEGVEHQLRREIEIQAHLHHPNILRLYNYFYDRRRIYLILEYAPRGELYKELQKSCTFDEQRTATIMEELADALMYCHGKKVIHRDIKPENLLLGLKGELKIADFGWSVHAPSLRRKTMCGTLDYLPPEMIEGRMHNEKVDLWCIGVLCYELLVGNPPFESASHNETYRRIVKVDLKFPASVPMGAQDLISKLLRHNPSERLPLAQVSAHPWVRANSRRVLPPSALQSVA
# Aurora B/INCENP, sequence (Q9NQS7 whole entry partner): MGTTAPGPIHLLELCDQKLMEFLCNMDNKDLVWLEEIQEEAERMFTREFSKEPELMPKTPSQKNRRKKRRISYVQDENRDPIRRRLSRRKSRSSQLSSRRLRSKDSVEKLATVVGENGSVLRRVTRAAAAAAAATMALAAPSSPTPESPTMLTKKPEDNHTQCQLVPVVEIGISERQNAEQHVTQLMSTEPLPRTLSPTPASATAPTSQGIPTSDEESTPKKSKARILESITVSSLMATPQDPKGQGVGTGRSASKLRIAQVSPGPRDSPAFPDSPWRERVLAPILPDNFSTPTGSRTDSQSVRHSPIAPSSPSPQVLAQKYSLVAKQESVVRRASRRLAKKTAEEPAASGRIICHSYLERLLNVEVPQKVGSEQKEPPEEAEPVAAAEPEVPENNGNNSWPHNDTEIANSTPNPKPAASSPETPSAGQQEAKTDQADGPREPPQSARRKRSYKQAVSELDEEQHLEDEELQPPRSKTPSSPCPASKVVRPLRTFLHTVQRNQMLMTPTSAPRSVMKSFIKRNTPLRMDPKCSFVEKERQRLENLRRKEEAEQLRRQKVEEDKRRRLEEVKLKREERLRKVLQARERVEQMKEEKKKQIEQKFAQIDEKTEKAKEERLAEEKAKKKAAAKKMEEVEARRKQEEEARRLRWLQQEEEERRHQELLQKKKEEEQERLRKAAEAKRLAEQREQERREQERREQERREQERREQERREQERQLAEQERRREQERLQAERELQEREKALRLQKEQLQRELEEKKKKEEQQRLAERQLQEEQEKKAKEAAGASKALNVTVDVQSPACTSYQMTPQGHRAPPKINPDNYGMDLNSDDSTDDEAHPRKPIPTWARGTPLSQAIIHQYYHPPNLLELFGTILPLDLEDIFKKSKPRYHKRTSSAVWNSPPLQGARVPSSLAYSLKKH
row,SMILES,IC50
1,"Cc1cnc2[nH]c3c(C)c(C(=O)NCCN(C)C)cc(-c4cccc(C(=O)NC5CC5)c4)c3c2c1 [Compound 122, 5-(3-(cyclopropylcarbamoyl)phenyl)-N-(2-(dimethylamino)ethyl)-3,8-dimethyl-9H-pyrido[2,3-b]indole-7-carboxamide]",> 13 nM
2,"CCS(=O)(=O)c1cccc(-c2cc(CN(C)C)cc3[nH]c4ncc(C)cc4c23)c1 [Compound 135, [5-(3-Ethanesulfonyl-phenyl)-3-methyl-9H-pyrido[2,3-b]indol-7-ylmethyl]-dimethyl-amine]",> 13 nM
3,"CCS(=O)(=O)c1cccc(-c2cc(CN3CCOCC3)cc3[nH]c4ncc(C)cc4c23)c1 [Compound 136, 5-(3-Ethanesulfonyl-phenyl)-3-methyl-7-morpholin-4-ylmethyl-9H-pyrido[2,3-b]indole]",> 13 nM
4,"CCS(=O)(=O)c1cccc(-c2cc(CN3CCCC3)cc3[nH]c4ncc(C)cc4c23)c1 [Compound 138, 5-(3-Ethanesulfonyl-phenyl)-3-methyl-7-pyrrolidin-1-ylmethyl-9H-pyrido[2,3-b]indole]",> 13 nM
5,"CCNCc1cc(-c2cccc(S(=O)(=O)CC)c2)c2c(c1)[nH]c1ncc(C)cc12 [Compound 139, [5-(3-Ethanesulfonyl-phenyl)-3-methyl-9H-pyrido[2,3-b]indol-7-ylmethyl]-ethyl-amine]",> 13 nM
6,"CCS(=O)(=O)c1cccc(-c2cc(C(=O)N3CCN(C)CC3)cc3[nH]c4ncc(C)cc4c23)c1 [Compound 141, [5-(3-Ethanesulfonyl-phenyl)-3-methyl-9H-pyrido[2,3-b]indol-7-yl]-(4-methyl-piperazin-1-yl)-methanone]",> 13 nM
7,"CCS(=O)(=O)c1cccc(-c2cc(C(=O)NCCCN(C)C)cc3[nH]c4ncc(C)cc4c23)c1 [Compound 143, 5-(3-Ethanesulfonyl-phenyl)-3-methyl-9H-pyrido[2,3-b]indole-7-carboxylic acid (3-dimethylamino-propyl)-amide]",> 13 nM
8,"CCS(=O)(=O)c1cccc(-c2cc(C(=O)N3CCC(N(C)C)C3)cc3[nH]c4ncc(C)cc4c23)c1 (centres unmarked) [Compound 145, (3-Dimethylamino-pyrrolidin-1-yl)-[5-(3-ethanesulfonyl-phenyl)-3-methyl-9H-pyrido[2,3-b]indol-7-yl]-methanone]",> 13 nM
9,"CCS(=O)(=O)c1cccc(-c2c(Br)c(C(=O)OC)cc3[nH]c4ncc(C)cc4c23)c1 [Compound 147, 6-Bromo-5-(3-ethanesulfonyl-phenyl)-3-methyl-9H-pyrido[2,3-b]indole-7-carboxylic acid methyl ester]",> 13 nM
10,"CCS(=O)(=O)c1cccc(-c2c(Cl)c(C(=O)OC)cc3[nH]c4ncc(C)cc4c23)c1 [Compound 149, 6-Chloro-5-(3-ethanesulfonyl-phenyl)-3-methyl-9H-pyrido[2,3-b]indole-7-carboxylic acid methyl ester]",> 13 nM
11,"Cc1cnc2[nH]c3cc(C(=O)O)cc(SCc4ccccc4)c3c2c1 [Compound 151, 5-(benzylthio)-3-methyl-9H-pyrido[2,3-b]indole-7-carboxylic acid]",> 13 nM
12,"Cc1cnc2[nH]c3cc(C(=O)NCCN(C)C)cc(SCc4ccccc4)c3c2c1 [Compound 152, 5-(benzylthio)-N-(2-(dimethylamino)ethyl)-3-methyl-9H-pyrido[2,3-b]indole-7-carboxamide]",> 13 nM
13,CCNS(=O)(=O)c1cccc(-c2cc(C(=O)NC3CCN(C)CC3)c(C)c3[nH]c4ncc(C)cc4c23)c1 [Compound 153],> 13 nM
14,"COc1ccc(-c2ccc3c(c2)OCO3)c2c1[nH]c1ncc(C)cc12 [Compound 166, 5-(benzo[d][1,3]dioxol-5-yl)-8-methoxy-3-methyl-9H-pyrido[2,3-b]indole]",> 13 nM

# The next lines start with the values.
row,IC50,SMILES
1,8.6 to 13 nM,"CCS(=O)(=O)c1cccc(-c2cc(C(=O)NCCCN(C)C)c(C)c3[nH]c4ncc(C)cc4c23)c1 [Compound 115, N-(3-(dimethylamino)propyl)-5-(3-(ethylsulfonyl)phenyl)-3,8-dimethyl-9H-pyrido[2,3-b]indole-7-carboxamide]"
2,8.6 to 13 nM,"CCS(=O)(=O)c1cccc(-c2cc(C(=O)NCCN3CCCC3)c(C)c3[nH]c4ncc(C)cc4c23)c1 [Compound 116, 5-(3-(ethylsulfonyl)phenyl)-3,8-dimethyl-N-(2-(pyrrolidin-1-yl)ethyl)-9H-pyrido[2,3-b]indole-7-carboxamide]"
3,5.6 to 8.5 nM,"Cc1cnc2[nH]c3c(C)c(C(=O)NC4CCN(C)CC4)cc(-c4cccc(NC(=O)C5CC5)c4)c3c2c1 [Compound 120, 5-(3-(cyclopropanecarboxamido)phenyl)-3,8-dimethyl-N-(1-methyl-piperidin-4-yl)-9H-pyrido[2,3-b]indole-7-carboxamide]"
4,8.6 to 13 nM,"CCS(=O)(=O)c1cccc(-c2cc(C(=O)OC)cc3[nH]c4ncc(C)cc4c23)c1 [Compound 133, 5-(3-Ethanesulfonyl-phenyl)-3-methyl-9H-pyrido[2,3-b]indole-7-carboxylic acid methyl ester]"
5,< 4 nM,"CCS(=O)(=O)c1cccc(-c2cc(CO)cc3[nH]c4ncc(C)cc4c23)c1 [Compound 134, [5-(3-Ethanesulfonyl-phenyl)-3-methyl-9H-pyrido[2,3-b]indol-7-yl]-methanol]"
6,8.6 to 13 nM,"CCS(=O)(=O)c1cccc(-c2cc(CN3CCN(C)CC3)cc3[nH]c4ncc(C)cc4c23)c1 [Compound 137, 5-(3-Ethanesulfonyl-phenyl)-3-methyl-7-(4-methyl-piperazin-1-ylmethyl)-9H-pyrido[2,3-b]indole]"
7,4 to 5.5 nM,"CCS(=O)(=O)c1cccc(-c2cc(C(=O)O)cc3[nH]c4ncc(C)cc4c23)c1 [Compound 140, 5-(3-Ethanesulfonyl-phenyl)-3-methyl-9H-pyrido[2,3-b]indole-7-carboxylic acid]"
8,5.6 to 8.5 nM,"CCS(=O)(=O)c1cccc(-c2cc(C(=O)NCCN(C)C)cc3[nH]c4ncc(C)cc4c23)c1 [Compound 142, 5-(3-Ethanesulfonyl-phenyl)-3-methyl-9H-pyrido[2,3-b]indole-7-carboxylic acid (2-dimethylamino-ethyl)-amide]"
9,5.6 to 8.5 nM,"CCNC(=O)c1cc(-c2cccc(S(=O)(=O)CC)c2)c2c(c1)[nH]c1ncc(C)cc12 [Compound 146, N-ethyl-5-(3-(ethylsulfonyl)phenyl)-3-methyl-9H-pyrido[2,3-b]indole-7-carboxamide]"
10,4 to 5.5 nM,"CCS(=O)(=O)c1cccc(-c2cc(C(=O)OC)c(Br)c3[nH]c4ncc(C)cc4c23)c1 [Compound 148, 8-Bromo-5-(3-ethanesulfonyl-phenyl)-3-methyl-9H-pyrido[2,3-b]indole-7-carboxylic acid methyl ester]"
11,4 to 5.5 nM,"CCS(=O)(=O)c1cccc(-c2cc(C(=O)OC)c(Cl)c3[nH]c4ncc(C)cc4c23)c1 [Compound 150, 8-Chloro-5-(3-ethanesulfonyl-phenyl)-3-methyl-9H-pyrido[2,3-b]indole-7-carboxylic acid methyl ester]"
12,8.6 to 13 nM,"Cc1cnc2[nH]c3c(C)c(C(=O)NC4CCN(C)CC4)cc(-c4cccc(S(=O)(=O)C5CC5)c4)c3c2c1 [Compound 154, 5-(3-(cyclopropylsulfonyl)phenyl)-3,8-dimethyl-N-(1-methylpiperidin-4-yl)-9H-pyrido[2,3-b]indole-7-carboxamide]"
13,< 4 nM,"CCS(=O)(=O)c1cccc(-c2ccc(O)c3[nH]c4ncc(C)cc4c23)c1 [Compound 158, 5-(3-(ethylsulfonyl)phenyl)-3-methyl-9H-pyrido[2,3-b]indol-8-ol]"
14,8.6 to 13 nM,"COc1ccc(-c2cccc(S(=O)(=O)N3CCCC3)c2)c2c1[nH]c1ncc(C)cc12 [Compound 159, 8-methoxy-3-methyl-5-(3-(pyrrolidin-1-ylsulfonyl)phenyl)-9H-pyrido[2,3-b]indole]"
15,5.6 to 8.5 nM,"COc1ccc(-c2cccc(S(=O)(=O)[C@@H]3CCNC3)c2)c2c1[nH]c1ncc(C)cc12 [Compound 160, (R)-8-methoxy-3-methyl-5-(3-(pyrrolidin-3-ylsulfonyl)phenyl)-9H-pyrido[2,3-b]indole]"
16,5.6 to 8.5 nM,"COc1ccc(-c2cccc(NC(C)=O)c2)c2c1[nH]c1ncc(C)cc12 [Compound 162, N-(3-(8-methoxy-3-methyl-9H-pyrido[2,3-b]indol-5-yl)phenyl)acetamide]"
17,8.6 to 13 nM,"COc1ccc(-c2cccc(NC(=O)C3CC3)c2)c2c1[nH]c1ncc(C)cc12 [Compound 163, N-(3-(8-methoxy-3-methyl-9H-pyrido[2,3-b]indol-5-yl)phenyl)cyclopropanecarboxamide]"
18,5.6 to 8.5 nM,"COc1ccc(-c2cccc(C(=O)NC3CC3)c2)c2c1[nH]c1ncc(C)cc12 [Compound 164, N-cyclopropyl-3-(8-methoxy-3-methyl-9H-pyrido[2,3-b]indol-5-yl)benzamide]"
19,4 to 5.5 nM,"CCN(CC)C(=O)c1cccc(-c2ccc(OC)c3[nH]c4ncc(C)cc4c23)c1 [Compound 165, N,N-diethyl-3-(8-methoxy-3-methyl-9H-pyrido[2,3-b]indol-5-yl)benzamide]"
20,8.6 to 13 nM,"COc1ccc(-c2cccc(C(=O)NCCO)c2)c2c1[nH]c1ncc(C)cc12 [Compound 168, N-(2-hydroxyethyl)-3-(8-methoxy-3-methyl-9H-pyrido[2,3-b]indol-5-yl)benzamide]"
21,< 4 nM,"CCNS(=O)(=O)c1cccc(-c2ccc(OC)c3[nH]c4ncc(C)cc4c23)c1 [Compound 170, N-ethyl-3-(8-methoxy-3-methyl-9H-pyrido[2,3-b]indol-5-yl)benzenesulfonamide]"
